Source: patent US7521447B2, “P38 inhibitors and methods of use thereof” (Array Biopharma Inc., priority 2003, dated 2009)

These compounds were tested against activated p38α enzyme (Homo sapiens, UniProt Q16539) (assay: p38 Biochemical Assay). Settings: 5 nM activated p38α, 1 uM ATF-2 substrate, 10 μM ATP.
Set-up: key: An “active” compound is defined as a compound having an IC50 below 500 nM
Experimental: P38 activity was assayed at room temperature in a 100 μl reaction containing 5 nM activated p38α enzyme and 1 uM ATF-2 (Activating Transcription Factor 2 fusion protein) as the substrate in 25 mM HEPES (pH 7.4), 100 μM Vanadate, 1 mM DTT, 10 mM MgCl2 and 10 μM [[…]-^33P]-ATP (˜0.1 μCi P^33/reaction). The reaction was terminated after 30-40 minutes by adding 25% TCA, let stand for 5 minutes and then transferred directly to a GF-B membrane filter plate. The filter was washed twice for 30 seconds with 0.5% phosphoric acid using a Tomtec Mach III Automated Harvestor. After washing, the vacuum was continued for 30 seconds to dry the filter. Approximately 30 μl of scintillant was added per well to the filter plate and then read in a Liquid Scintillation Counter (Packard TopCount HTS).

Sequence of activated p38α enzyme (Q16539 whole entry): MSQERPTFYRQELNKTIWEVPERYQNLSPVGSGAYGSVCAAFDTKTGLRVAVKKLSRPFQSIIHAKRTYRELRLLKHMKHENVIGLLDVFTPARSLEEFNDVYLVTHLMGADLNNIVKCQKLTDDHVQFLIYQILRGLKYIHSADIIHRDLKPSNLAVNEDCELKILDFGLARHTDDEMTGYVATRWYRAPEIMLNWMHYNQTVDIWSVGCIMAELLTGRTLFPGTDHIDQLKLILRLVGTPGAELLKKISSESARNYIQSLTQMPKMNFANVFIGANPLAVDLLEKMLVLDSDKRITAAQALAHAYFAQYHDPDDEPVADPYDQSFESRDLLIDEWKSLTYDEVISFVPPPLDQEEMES

Row | p38 Inhibition IC50 (nM) | Compound
1 | active | COC(=O)C(CCN)NC(=O)c1cc2c(cnn2CC(C)C)cc1Oc1ccc(F)cc1 (centres unmarked) [Compound 1j-2, 4-amino-2-{[5-(4-fluorophenoxy)-1-isobutyl-1H-indazole-6-carbonyl]-amino}butyric acid methyl ester]
2 | active | COC(=O)C(CCN)NC(=O)c1cc2c(cnn2CC(F)(F)F)cc1Oc1ccc(F)cc1 (centres unmarked) [Compound 1j-4, 4-amino-2-{[5-(4-fluorophenoxy)-1-(2,2,2-trifluoroethyl)-1H-indazole-6-carbonyl]-amino}butyric acid methyl ester]
3 | active | CC(C)Cn1ncc2cc(C(O)c3ccc(Cl)cc3F)ccc21 (centres unmarked) [Compound 4f-7, (4-chloro-2-fluorophenyl)-(1-isobutyl-1H-indazol-5-yl)-methanol]
4 | active | CC(C)Cn1ncc2cc(C(O)c3ccc(F)cc3Cl)ccc21 (centres unmarked) [Compound 4f-8, (2-chloro4-fluorophenyl)-(1-isobutyl-1H-indazol-5-yl)-methanol]
5 | active | CC(C)Cn1ncc2cc(C(=O)c3ccc(F)cc3Cl)ccc21 [Compound 5f-8, (2-chloro-4-fluorophenyl)-(1-isobutyl-1H-indazol-5-yl)-methanone]
6 | active | O=C(c1ccc2c(cnn2CC(F)(F)F)c1)c1ccc(F)cc1F [Compound 5f-11, (2,4-difluorophenyl)-[1-(2,2,2-trifluoro-ethyl)-1H-indazol-5-yl]-methanone]
7 | active | C=CCn1ncc2cc(C(=O)c3ccc(F)cc3F)ccc21 [Compound 5f-12, (1-allyl-1H-indazol-5-yl)-(2,4-difluorophenyl)-methanone]
8 | active | Cc1ccc(-n2nc(C(C)(C)C)cc2NC(=O)NCc2cccnc2Oc2ccc3c(cnn3C)c2)cc1 [Compound 6n, 1-(5-tert-butyl-2-p-tolyl-2H-pyrazol-3-yl)-3-[2-(1-methyl-1H-indazol-5-yloxy)-pyridin-3-ylmethyl]-urea]
9 | active | CCON=C(c1ccc(F)cc1)c1ccc2c(cnn2CC(C)C)c1 [Compound 7f-4, (4-fluorophenyl)-(1-isobutyl-1H-indazol-5-yl)-methanone O-ethyl-oxime]
10 | active | CC(C)Cn1ncc2cc(C(=NOCc3ccccc3)c3ccc(F)cc3F)ccc21 [Compound 7f-7, (2,4-difluorophenyl)-(1-isobutyl-1H-indazol-5-yl)-methanone O-benzyl-oxime]
11 | active | CON=C(c1ccc(F)cc1)c1ccc2c(cnn2CC(C)C)c1 [Compound 7f-9, (4-fluorophenyl)-(1-isobutyl-1H-indazol-5-yl)-methanone O-methyl-oxime]
12 | active | ON=C(c1ccc2c(cnn2CC(F)(F)F)c1)c1ccc(F)cc1F [Compound 7f-12, (2,4-difluorophenyl)-[1-(2,2,2-trifluoroethyl)-1H-indazol-5-yl]-methanone oxime]
13 | active | CON=C(c1ccc2c(cnn2CC(F)(F)F)c1)c1ccc(F)cc1F [Compound 7f-13, (2,4-difluorophenyl)-[1-(2,2,2-trifluoro-ethyl)-1H-indazol-5-yl]-methanone O-methyl oxime]
14 | active | CS(=O)(=O)n1ncc2cc(C(=NO)c3ccc(F)cc3F)ccc21 [Compound 7f-14, (2,4-difluorophenyl)-(1-methanesulfonyl-1H-indazol-5-yl)methanone oxime]
15 | active | CON=C(c1ccc2c(cnn2S(C)(=O)=O)c1)c1ccc(F)cc1F [Compound 7f-15, (2,4-difluorophenyl)-(1-methanesulfonyl-1H-indazol-5-yl)-methanone O-methyl oxime]
16 | active | C=CCn1ncc2cc(C(=NO)c3ccc(F)cc3F)ccc21 [Compound 7f-17, (1-allyl-1H-indazol-5-yl)-(2,4-difluorophenyl)-methanone oxime]
17 | active | Cc1ccc(-n2nc(C(C)(C)C)cc2NC(=O)NCc2cc(F)ccc2Oc2ccc3c(cnn3C)c2)cc1 [Compound 7t-1, 1-(5-tert-butyl-2-p-tolyl-2H-pyrazol-3-yl)-3-[5-fluoro-2-(1-methyl-1H-indazol-5-yloxy)-benzyl]urea]
18 | active | Cc1ccc(-n2nc(C(C)(C)C)cc2NC(=O)NCc2cc(F)ccc2Nc2ccc3c(cnn3CC3CCC3)c2)cc1 [Compound 9q-2, 1-(5-tert-butyl-2-p-tolyl-2H-pyrazol-3-yl)-3-[2-(1-cyclobutylmethyl-1H-indazol-5-ylamino)-5-fluorobenzyl]-urea]
19 | active | CC(C)Cn1ncc2cc(Oc3ccc(F)cc3)c(C(N)=O)cc21 [Compound 11g-1, 5-(4-fluorophenoxy)-1-isobutyl-1H-indazole-6-carboxylic acid amide]
20 | active | CN(C)CCNC(=O)c1cc2c(cnn2CC(F)(F)F)cc1Oc1ccc(F)cc1 [Compound 11g-14, 5-(4-fluorophenoxy)-1-(2,2,2-trifluoroethyl)-1H-indazole-6-carboxylic acid (2-dimethylaminoethyl) amide]
21 | active | CC(C)Cn1ncc2cc(Oc3ccccc3CC(=O)Nc3ccc(N4CCOCC4)cc3)ccc21 [Compound 16p, 2-[2-(1-isobutyl-1H-indazol-5-yloxy)-phenyl]-N-(4-morpholin-4-yl-phenyl)-acetamide]
22 | active | Cc1ccc(-n2nc(C(C)(C)C)cc2NC(=O)N(C)Cc2cc(F)ccc2Oc2ccc3c(cnn3C)c2)cc1 [Compound 28t, 3-(5-tert-butyl-2-p-tolyl-2H-pyrazol-3-yl)-1-[5-fluoro-2-(1-methyl-1H-indazol-5-yloxy)-benzyl]-1-methylurea]

Row | Compound | p38 Inhibition IC50 (nM)
23 | Cc1ccccc1C(O)c1ccc2c(cnn2CC(C)C)c1 (centres unmarked) [Compound 4f-10, (1-isobutyl-1H-indazol-5-yl)-O-tolyl methanol] | active
